The values that follow come from article PMC11982498 (Redox Biology, 2025).

The subject of test [1] is BCL-2 gene transcription in SH-SY5Y cells. The test can be described thus: Real-time RT-PCR in SH-SY5Y cells, BCL-2. Type of test: cell-based, human. How it is done: SH-SY5Y cells were treated with or without B14, and total RNA was subsequently isolated and purified. Reverse transcription was performed using a cDNA synthesis kit. The relative transcription levels of the genes were evaluated through quantitative real-time PCR using the SYBR Green-based method, as described in the Supplementary Date. Details regarding the primer sequences and the raw data can be found in Table S7 and Table S8.
^a -∆∆Ct = -[(Ct value of genes in treated sample - Ct value of genes in control) - (Ct value of β-actin in treated sample - Ct value of β-actin in control)]. ^b F: The relative expression fold.
Experiment 1: SH-SY5Y cells were treated with different concentration of B14. The Ct values of BAX, VEGF, CMYC and BCL-2 were obtained.
Total RNA was extracted from cells and mice liver tissue using RNAiso Plus (Takara, 9109, Japan). Following sample homogenization, chloroform was added, and the solution was allowed to have phase separation into an upper aqueous layer (containing RNA), an interphase, and a lower organic layer (containing DNA and proteins). RNA was precipitated from the aqueous phase using isopropanol, while DNA was precipitated from the aqueous-organic interphase using ethanol. Complementary DNA (cDNA) was synthesized using the One-Step RT-PCR Kit (Takara, Cat#639503, Japan).
Quantitative real-time polymerase chain reaction (qRT-PCR) was performed using the 2× RealStar SYBR Mixture (GenStar, Cat# A301-10, Guangzhou, China) on a LightCycler 480 II real-time PCR system (Roche, USA). Data were analyzed using the 2^−ΔΔCt method. Actin served as the internal control, and relative mRNA levels were normalized accordingly.
In general terms: In qPCR the cycle at which signal appears reflects the starting amount.

The target in another test is T1, Aβ1-42 (Homo sapiens, UniProt P05067).
T1 construct: Aβ1-42 was purchased from Gill Biochemicals Ltd (Shanghai, China); purchased Gill Biochemicals Ltd (Shanghai, China)
The test can be described thus: Transmission electron microscopy of Aβ1-42 fibrils. Type of test: biochemical. Conditions: 20 μM compound, 72 h. As to the method:
TEM experiment was carried out following a published method without significant modification, and the Aβ1-42 solution (100 μM) was co-incubated with B14 (20 μM) or Curcumin (20 μM) at 37 °C for 72h. The samples were dropped to a carbon-coated grid, stained with 2 % phosphotungstic acid, and then dried at room temperature. The morphology of Aβ1-42 fiber was observed on a JEM-1200EX II transmission electron microscope (Jeol, Japan).
The Aβ1-42 solution (100 μM) was co-incubated with B14 solution (20 μM) or Curcumin (20 μM) at 37 °C for 72h. The samples were dropped to a carbon-coated grid, stained with 2% phosphotungstic acid, and then dried at room temperature. The morphology of Aβ1-42 fiber was observed on a JEM-1200EX II transmission electron microscope (Jeol, Japan).

A further test has as its system BCL-2 G4. The test can be described thus: ESI-MS with BCL-2 G4. Type of test: binding. Conditions: pH 7.4. As to the method: The oligomer for BCL-2 promoter […] at concentration of 5 μM was annealed in 1 × BPES buffer with or without 20 μM B14 at 95 °C for 5 min, followed by cooling to room temperature. Mass spectrometry signals were collected by using ESI-MS (Thermo, LCQ DECA Plus XP) and analyzed by using pro-mass.
(§1) Figure S5. ESI-MS, UV, CD, and EMSA experiments were performed to examine the effect of B14 on BCL-2 promoter i-motif and G-quadruplex. (A) ESI-MS experiment for oligomer BCL-2 G4 alone, which was annealed in 1 × BPES buffer at pH 7.4. (B) ESI-MS experiment for above oligomer BCL-2 G4 with addition of B14 in 1 × BPES buffer at pH 7.4. (C-D) TO displacement with increasing amount of oligomer BCL-2 i-motif annealed in 1 X BPES buffer at pH 5.5 in the presence of 20 equivalents of B14 or A22. (E) EMSA experiment was performed for the effect of B14 on inducing BCL-2 i-motif formation. The lanes from left to right were as follow: BCL-2 i-motif alone at pH 5.5; BCL-2 i-motif alone at pH 6.2; BCL-2 i-motif plus 1 eq B14 at pH 6.2; BCL-2 i-motif plus 5 eq B14 at pH 6.2; BCL-2 i-motif plus 10 eq B14 at pH 6.2. (F) CD experiment was performed to study the interaction of B14 or A22 with BCL-2 promoter i-motif.

Test [2] concerns BCL-2 promoter C-rich sequence. The test is described as follows: EMSA of BCL-2 i-motif formation. Type of test: binding. Conditions: pH 6.2; 1, 5, 10 eq. As to the method: as §1
The DNA oligonucleotides were diluted to 5 μM with 1 × BPES buffer at pH 5.5 or pH 6.2, and different equivalents of compound were added. The mixtures were annealed at 95 °C for 10 min, gradually cooled to room temperature, and incubated at 4 °C overnight. Electrophoresis was carried out using 20% acrylamide Native PAGE (pH 6.4) with 1 × Tris-borate-EDTA (TBE) as running buffer (pH 6.4) at 80 V for 7 h at 4 °C. The gels were then silver-stained and photographed.

In test [3] the test system is GFAP, Iba-1, NF-κB, TNF-α and IL-6 in hippocampus of APP/PS1 mice. The test is described as follows: Neuroinflammation markers in hippocampus. It counts as in vivo. How it is done:
Protein samples (25–40 μg) were separated using 10 % SDS-PAGE and subsequently transferred onto PVDF membranes (0.22 μm, Servicebio, Guangzhou, China) via electro transfer. Following blocking with TBST solution (Servicebio, Guangzhou, China) containing 5 % BSA (Solarbio, Beijing, China) for approximately 60 min at room temperature, the membrane was exposed to various primary antibodies overnight at 4 °C on a rotating shaker. Then, the membranes were incubated with HRP-conjugated secondary antibody (Affinity, Changzhou, China) for 2 h. Protein bands were then detected using an ECL kit. The signal intensity of each target protein was quantified using Image J 1.8.0 software (Bio-Rad Laboratories, California, USA).
Five months old male APP/PS1 mice, weighing 25–33 g, were purchased from Guangdong Medical Laboratory Animal Center and housed in the Laboratory Animal Center of Sun Yat-sen University (Guangzhou, China) for experimentation. All procedures were approved by the Animal Care and Use Committee of Sun Yat-sen University and complied with legal requirements and national guidelines for the care and maintenance of laboratory animals (Approval No. SYSU-IACUC-2024-002032). The mice were housed in a specific pathogen-free environment with a controlled temperature of 22 ± 1 °C and a 12-h dark/light cycle. […]

T1 sequence (P05067 672-713 limits assumed): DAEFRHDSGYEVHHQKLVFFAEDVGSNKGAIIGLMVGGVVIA

With `O=C(CCN1CCOCC1)Nc1ccc2c(c1)c(=O)c1cc(NC(=O)CCN3CCOCC3)ccc1n2-c1ccc2occc2c1` [Compound B14], in test [1] (6.25 μM B14), the “-∆∆Ct, BCL-2” value is on record as -0.31 and the “F = 2^-∆∆Ct (relative expression fold), BCL-2” value worked out at 1.23. In test [1] (12.5 μM B14), the “-∆∆Ct, BCL-2” value was -0.73 and the “F = 2^-∆∆Ct (relative expression fold), BCL-2” value was 1.65. In test [1] (25 μM B14), the “-∆∆Ct, BCL-2” value is -1.11 and the “F = 2^-∆∆Ct (relative expression fold), BCL-2” value came to 2.15. Moreover, the “ultrastructure of Aβ1-42 fibers (TEM)” value on Aβ1-42 was “formation of protofibrils or amorphous oligomers was significantly reduced”. Further, in the test with BCL-2 G4, the “adduct peak in ESI-MS” value is on record as “no corresponding binding peak appeared”. Also, the “i-motif migration band (EMSA)” value in test [2] was “could induce BCL-2 i-motif formation in a dose-dependent manner”. Further, in test [3], the “activation of astrocytes (GFAP) and microglia (Iba-1)” value was “reduce the activations of astrocytes”; the “expressions of inflammatory factors” value was “decrease the expressions of the inflammatory factors NF-κB, TNF-α and IL-6”.
